Reference: US20060035365A1, “Method for identifying cellular growth inhibitors” (priority 2002, published 2006)

Legend:
[1] = system: S. aureus containing S1-1941, a plasmid expressing a xylose-inducible fabF anti-sense RNA; assay: Agar assay for fabF-acting substances: revertant colonies in the zone of inhibition; assay type: cell-based, Staphylococcus aureus; settings: for appearance of revertant colonies / zone of growth inhibition on assay plate: 10 μL sample per well, thiotetramycin 1 mg/mL in DMSO, cerulenin 20 μg/mL in DMSO, kanamycin 100 μg/mL in water, xylose 23.6 mM, overnight 37° C., visual inspection
Experimental: S. aureus containing S1-1941, a plasmid expressing a xylose-inducible fabF anti-sense RNA (described in WO 00/44906 and in Forsyth et al., Mole. Microbiol. 2002, 43: 1387-1400), are inoculated into an LB broth culture medium supplemented with […] of chloramphenicol, and grown overnight at 37° C. with shaking (225 rpm). The culture is then diluted in the LB medium to a final optical density (λ=600 nm) of 0.3. Diluted cells (750 μL) are then added to a molten LB-agar medium (30 mL) supplemented with xylose (23.6 mM) and glucose (0.19 g/100 mL) and equilibrated at 48° C. The molten mixture is briefly mixed and is then poured onto sterile disposable polystyrene 86×128 mm dishes (NUNC Cat. No. 242811), after which a TSP (=transferable solid phase screening system) casting tray (NUNC Cat. No. 445497) is placed on top to cast wells. The dishes are allowed to cool down to room temperature for about 15 minutes and are then stored for no more than 2 days at 4° C. until ready for sample dispensing. Samples (10 μL) of one or more test substances (500 μM) and samples of controls, each dissolved in 100% DMSO, are subsequently dispensed into wells and the plates incubated overnight at 37° C. The incubated plates are then inspected visually for the appearance of revertant colonies to determine whether the test substance(s) act at the fabF protein.
The fabF-targeting control will produce revertant colonies in and around a zone of inhibition, and the non-fabF targeting control will produce a clear zone of inhibition (i.e., devoid of revertant colonies). The zones of inhibition of the test substances are compared to those of the controls to screen for fabF-acting substances.
The assay protocol set forth in Part A was employed to test whether thiotetramycin is a fabF-acting antibacterial agent. A 10 μL sample of thiotetramycin dissolved in 100% DMSO (1 mg/mL) was dispensed into one well of the plate. In addition, a 10 μL sample of cerulenin in 100% DMSO (20 μg/mL) and a 10 μL sample of kanamycin in water (100 μg/mL) were respectively dispensed into two wells as controls. After incubation as described in Part A, the plates were inspected visually for zones of bacterial growth.

[2] = system: S. aureus strain SafabF/GFP; assay: Liquid GFP reporter assay for fabF antisense revertants (Relative Fluorescence Index); assay type: cell-based, Staphylococcus aureus; settings: for change of RFI with increasing xylose concentration: 0, 7 and 14 mM xylose, drug concentrations approximating 50% inhibition of growth in no-xylose cells, 16 hours
Description: The green fluorescent protein (GFP) reporter gene was used to identify fabF antisense revertants in liquid culture by the following method: S. aureus containing a plasmid encoding the antisense fabF DNA was used to develop an inducible GFP reporter system, where the GFP gene is transcriptionally silent until the fabF antisense containing plasmid DNA is deleted or rearranged. A plasmid, pM310, was constructed that consists of the fabF antisense vector (Forsyth et al, 2002), with a tetracycline repressor gene and its promoter (Geissendorfer et al., Appl. Microbiol. Biotechnol 1990, 33: 657-663) inserted downstream of the fabP antisense DNA. A second plasmid, pM302, was constructed that consists of the E. coli vector pUC19 (Gibco BRL) joined to the S. aureus vector pUB110 (ATCC 37015), through the EcoR1 and AatII restriction sites. At the pUC19 multicloning site, a GFP gene was inserted into the BamH1 and SalI restriction sites and a tetracycline operator containing promoter (Geissendorfer et al, 1990) was cloned into the EcoR1 and BamH1 sites. A S. aureus strain, SafabF/GFP, was constructed that contained both plasmids pM310 and pM302 and was resistant to chloramphenicol and kanamycin. SafabF/GFP was sensitive to xylose induction resulting in an increased sensitivity to cerulenin. In the presence of cerulenin, resistant revertants will be selected for, which have deleted the antisense vector, and along with this deletion, lost the tetracycline repressor gene. […] Revertants can be measured as a function of fluorescent readout relative to cell number.
To quantitatively measure the fabF revertants, a liquid assay was developed, where various concentrations of xylose were tested with various concentrations of the following test compounds: cerulenin, thiostrepton and ampicillin. […] A 96-well plate was used to measure growth of the culture and final absorbance after 16 hours of incubation at 37° C. […] The final absorbance as read at 590 nm (A590) and fluorescence of the GFP was measured by excitation at 485 nm wavelength and emission wavelength at 535 nm (E535), using a Tecan Spectrafluor Plus.
To detect a specific GFP response in the presence of a fabF selective inhibitor, cerulenin, the Relative Fluorescence Index (RFI) was calculated for each drug treatment and for each xylose treatment. The RFI is defined as E535/A590 ratio, normalized to the corresponding ratio calculated on no-xylose control cells within each drug test group. For instance, with 15 μg/ml cerulenin treatment, the E535/A590 ratio was calculated for 0, 7 and 14 mM xylose treated cells, and the ratio for each were divided by the E535/A590 ratio from the no-xylose treated cells. […]

Compound: C/C=C/C/C=C/CCC(=O)[C@H]1O[C@H]1C(N)=O [cerulenin]
- appearance of revertant colonies / zone of growth inhibition on assay plate [1]: several visually observable revertant bacterial colonies
- appearance of revertant colonies / zone of growth inhibition on assay plate ([1]; listed as Cerulenin): growth of revertant colonies in and around a zone of growth inhibition
- change of RFI with increasing xylose concentration [2]: RFI increased with increasing xylose concentration
- maximum change of Relative Fluorescence Index (RFI) ([2]; 14 mM xylose and 15 μg/ml cerulenin, 16 hours at 37° C., normalized to no-xylose control cells): 9 fold

Compound: thiotetramycin
- appearance of revertant colonies / zone of growth inhibition on assay plate [1]: several visually observable revertant bacterial colonies
- appearance of revertant colonies / zone of growth inhibition on assay plate ([1]; listed as Thiotetramycin): growth of revertant colonies which appear as small white foci of growth in and around a zone of growth inhibition
- conclusion whether test substance is a fabF-acting antibacterial agent ([1]; from comparison with cerulenin and kanamycin controls): selectively targets the fabF protein

Compound: C=C(NC(=O)C(=C)NC(=O)c1csc(C2=N[C@@H]3c4csc(n4)[C@H]4NC(=O)c5csc(n5)[C@H]([C@](C)(O)[C@@H](C)O)NC(=O)[C@H]5CSC(=N5)/C(=C/C)NC(=O)[C@H]([C@@H](C)O)NC(=O)c5csc(n5)[C@]3(CC2)NC(=O)[C@H](C)NC(=O)C(=C)NC(=O)[C@H](C)NC(=O)[C@H]([C@@H](C)CC)N[C@@H]2C=Cc3c([C@H](C)O)cc(nc3[C@H]2O)C(=O)O[C@@H]4C)n1)C(N)=O [thiostrepton]
- change of RFI with increasing xylose concentration [2]: No increase in RFI

Compound: CC1(C)S[C@@H]2[C@H](NC(=O)[C@H](N)c3ccccc3)C(=O)N2[C@H]1C(=O)O [ampicillin]
- change of RFI with increasing xylose concentration [2]: No increase in RFI
